According to patent US5312831A, “Urethanes and ureas that induce cytokine production” (American Cyanamid Company, priority 1993, dated 1994):
“Also recorded” adds a separate entry of the source. Where two headings read alike, the source gives them in different places.

What was measured:
CSF = assay: Serum colony stimulating factor (CSF) assay in mice; assay type: in vivo, mouse; conditions: serum 4 hours after injection
Description: Colony forming assays Granulocyte-Macrophage (CFU-GM)--Mice are treated with 150 mg/kg of 5-Fu and treatment with test compound begins 24 hrs. later. On consecutive days, mice are killed by cervical dislocation and the femurs removed under sterile conditions. Femurs are flushed with 1 ml of ice cold medium (Iscove's supplemented with 20% FCS, 1% penicillin-streptomycin, 1% glutamine and 5×10^-5 M 2-mercaptoethanol). Bone marrow cells (5×10^5) are then plated in 12×75 mm tissue culture plates in 3 ml of warm ararose (3%) in Iscove's medium with 100 Units/ml of recombinant mouse GM-CSF purchased from Genzyme (Boston, Mass.). Plates are incubated for 7 days at 37° C. in 5% CO2. After 7 days, colonies of 50 cells or greater are enumerated under a dissecting microscope.
Bone marrow cells are prepared as described above for the CFU-GM assay. The cells are then incubated in soft agar with an 0.3% final concentration of serum taken from mice 4 hours after injection with test compounds. After 7 days of incubation at 37° C., the number of colony forming (CFU) cells per 10^5 plated bone marrow cells is determined by counting colonies of more than 50 cells under a dissecting microscope. The data are reported as CFU/10^5 bone marrow cells.

GCSF [1] = assay: Serum GCSF production in mice (NFS-60 bioassay); assay type: in vivo, mouse; conditions: for GCSF: 4 hours, 10 mice/group
Description: Description of Biological Assays Interleukin 6(IL-6) assay for structure function analysis--Test compounds are dissolved in water and administered subcutaneously in 0.2 ml to deliver a dose of 0.1-10 mg/kg. The less soluble compounds are first dissolved in 100% ethanol and then brought to the appropriate concentration in water. Four hours post injection, the mice are bled and the serum is retrieved. The IL-6 dependent cell line 7TDl is used to assay serial dilutions of sera for IL-6 content. 7TDl cells (1×10^4) are placed in microtiter wells and incubated at 37° C. for 72 hours with standard recombinant mouse IL-6 or with dilutions of serum to be tested. Over the last 6 hours, the cells are pulsed with ^3 H-Tdr (μci). Cells are then harvested and the degree of proliferation determined by the uptake of ^3 H-Tdr as measured by liquid scintillation spectrometry. The concentration of IL-6 in serum is calculated from standard curves utilizing recombinant IL-6 from R&D Systems Inc. and are reported in units of IL-6 activity as defined by the manufacturer.
Granulocyte colony stimulating factor (GCSF) assay--A bioassay for GCSF is performed in an identical fashion to the IL-6 assay except that the GCSF dependent cell line NFS-60 is used in place of the IL-6 dependent 7TDI cell line.
Mice (10/group) are given a single subcutaneous injection of test compoun
and bled 4 hours later. GCSF levels in serum are determined by bioassay
using the GCSF dependent cell line NFS60.

neutrophils [2] = assay: Oral dosing: neutrophil recovery in 5-FU treated mice; assay type: in vivo, mouse; conditions: for Neutrophils/cu. mm.: day 6 after 5-FU 150 mg/kg, 0 dose 178 ± 64
Description: (§1) Circulating Neutrophil Assay--Mice are treated with 5-FU (150 mg/kg) and beginning 24 hrs. later, treated daily with the test compound. Mice are bled daily by retroorbital puncture in heparinized capillary tubes. Circulating WBC counts are determined by Coulter counter. Blood smears are stained with Wright-Geimsa solution and the percentage circulating neutrophils determined by differential counting under a microscope.
(§2) 5-Fluorouracil (5-FU) Induced Neutropenia In Mice--Mice are treated ip with 150 mg/kg of the chemotherapy agent 5-FU which induces a severe loss of neutrophils in the peripheral blood 5-6 days later. Twenty-four hrs. after the dose, treatment with the test compounds is initiated. The effect of the test compounds on recovery of neutrophil progenitor cells in the bone marrow is determined by the CFU-GM assay. The recovery of circulating neutrophils is followed by differential staining of the peripheral blood.
Groups of 5 mice are treated with 150 mg/kg of 5-FU. One day later, daily oral dosing with test compounds begins and continues for 10 days. […]

[3] = tested on: bone marrow progenitor cells; assay: Delta assay: expansion of bone marrow progenitor cells in vitro, with c-kit ligand (KL); assay type: cell-based, mouse; conditions: for fold induction at 0.5 µg/mL: Mus musculus, Bone marrow cell, 168 h, 7 day in vitro incubation, read-out: Fold Increase in CFU
Description: Delta Assay--Mice are treated with a single dose of 5-FU (150 mg/kg ip). Twenty-four hours later, bone marrow cells are removed and split into 2 aliquots. […] After 14 days, the number of colonies is determined (CFU-1). A second aliquot of cells is placed in liquid culture with single growth factors or drugs or combinations of each to assess the ability of these agents to expand the colony forming cell pool. After 7 days in liquid culture, these cells are harvested and plated in soft agar with IL-1 and GM-CSF as with the first aliquot. After 14 days the number of colonies in the second aliquot is determined (CFU-2). The ratio or delta is calculated as CFU-2/CFU-1 and this ratio is used to ascertain the ability of the growth factors and/or drugs used in the liquid phase to induce growth of the colony forming cells (CFU) or differentiation of pre-CFU to CFU.
Bone marrow cells from 5-FU treated mice are used to enrich for early progenitor cells. The cells are split into 2 aliquots as described in the methods section for the "delta assay." The fold increase is determined by measuring the effect of a 7 day in vitro incubation of the cells with tissue culture medium plus test compound and/or growth factor KL on colony forming dells (CFU). The number of CFUs are then compared with colony formation of the fresh bone marrow cells that were not incubated in vitro to determine the fold increase. Test compound is used in vitro at 0.5 μg/ml.

neutrophils [4] = assay: Neutrophil recovery in 5-FU treated mice; assay type: in vivo, mouse; conditions: for Neutrophils/cu. mm.: day 7 post 5FU 150 mg/kg, 10 mice/group, vehicle 157 ± 52
Description: as §1, §2
*Data from 10 mice/group on day 7 post treatment with 150 mg/kg of 5FU.
Beginning 24 hrs. after 5FU dose, mice were treated daily with test
compound at concentrations indicated. Neutrophil count for normal mice (n
**Mice treated with 5FU and vehicle only.

GCSF [5] = assay: Serum GCSF in 5-FU treated monkeys; assay type: in vivo, cynomolgous monkeys
Description: Groups of 3 cynomolgous monkeys are treated with 5FU at 125 mg/kg and
beginning 24 hours later treated with test compound s.c. at 0.05 mg/kg.
The data reported are from sera taken 4 hours after test compound

## CCCCCCC(=O)N[C@@H](C(=O)O)[C@@H](C)OC(=O)N[C@@H](CCC[C@@H](N)C(=O)O)C(=O)N[C@H](C)C(=O)O [Example 28, [R-(R*,R*)]-N-(R)-6-carboxy-N^2-[[2-carboxy-1-methyl-2-[(1-oxoheptyl)amino]ethoxy]carbonyl]-L-lysyl]-D-Alanine]
CSF; 0.1 mg/kg
  CSF production, CFU/100,000 Bone Marrow Cells: 95 ± 16 CFU/100,000 Bone Marrow Cells
CSF; 1.0 mg/kg
  CSF production, CFU/100,000 Bone Marrow Cells: 101 ± 8 CFU/100,000 Bone Marrow Cells
GCSF [1]; 1.56 μg/kg single s.c.
  GCSF: 442 ± 52 pg/mL
GCSF [1]; 3.12 μg/kg single s.c.
  GCSF: 470 ± 59 pg/mL
GCSF [1]; 6.25 μg/kg single s.c.
  GCSF: 644 ± 267 pg/mL
GCSF [1]; 12.50 μg/kg single s.c.
  GCSF: 1342 ± 289 pg/mL
GCSF [1]; 25.00 μg/kg single s.c.
  GCSF: 3352 ± 907 pg/mL
GCSF [1]; 50.00 μg/kg single s.c.
  GCSF: 1249 ± 138 pg/mL
GCSF [1]; injected mice
  GCSF induction in the serum of mice (in words): induce GCSF in the serum of injected mice
Neutrophils [2]; 0.1 mg/kg daily oral
  Neutrophils/cu. mm.: 81 ± 35 /cu. mm
Neutrophils [2]; 1 mg/kg daily oral
  Neutrophils/cu. mm.: 765 ± 209 /cu. mm
Neutrophils [2]; 10 mg/kg daily oral
  Neutrophils/cu. mm.: 1391 ± 350 /cu. mm
Neutrophils [2]; oral
  neutrophil recovery in 5-FU treated mice when given orally (in words): active in accelerating neutrophil recovery
[3]; KL + test compound (0.5 μg/ml)
  fold induction at 0.5 µg/mL: 158
[3]; test compound alone, 0.5 μg/ml, medium alone 0
  fold induction at 0.5 µg/mL: 1.3
[3]; in vitro
  synergy with c-kit ligand (KL) on growth of bone marrow progenitor cells (in words): acts synergistically
Neutrophils [4]; 1.56 μg/kg daily
  Neutrophils/cu. mm.: 722 ± 199 /cu. mm.
Neutrophils [4]; 3.12 μg/kg daily
  Neutrophils/cu. mm.: 424 ± 115 /cu. mm.
Neutrophils [4]; 6.25 μg/kg daily
  Neutrophils/cu. mm.: 758 ± 249 /cu. mm.
Neutrophils [4]; 12.50 μg/kg daily
  Neutrophils/cu. mm.: 1314 ± 267 /cu. mm.
Neutrophils [4]; 25.00 μg/kg daily
  Neutrophils/cu. mm.: 1804 ± 408 /cu. mm.
Neutrophils [4]; 50.00 μg/kg daily
  Neutrophils/cu. mm.: 1716 ± 284 /cu. mm.
Neutrophils [4]; 100.00 μg/kg daily
  Neutrophils/cu. mm.: 2613 ± 364 /cu. mm.
Neutrophils [4]; mouse, in vivo
  neutrophil recovery in 5-FU treated mice (in words): enhances the recovery of peripheral blood neutrophils; also recorded: induce neutrophil recovery in 5-FU treated mice
GCSF [5]; 0.05 mg/kg s.c., 5FU 125 mg/kg, sera 4 hours after treatment, 5-FU only 0
  Serum GCSF: 3962 ± 2178 pg/mL
GCSF [5]; monkey, in vivo
  GCSF production in the serum of 5-FU treated primates (in words): induces IL-6 and GCSF production
